Reference: patent US20130131062A1, “PYRIDAZINONES AND FURAN-CONTAINING COMPOUNDS” (priority 2006, published 2013)
pIC50: −log10 of the molar value. Like-named read-outs stand apart in the source and are kept apart here.

Key:
[1] = system: H358; test: Non Small Cell Lung Cancer Proliferation Assay (Alamar Blue), dose response; details: Homo sapiens, NCI-H358, read-out: H358 Dose Response (uM)
Protocol: To perform the assay, the Non Small Cell Lung Cancer lines are diluted in media and plated into 384 well microplates at a final density of 250 cells in 45 μL.
After addition, the cells are placed in cell culture incubator at 37° C. for 48 hours for complete treatment.
After drug treatment, cytotoxicity is measured by Alamar Blue reduction.
The cells are incubated for 48 hours at 37° C. to complete the Alamar Blue reduction.
The final step in the assay is to measure the amount of Alamar Blue reduction. […] The Alamar Blue fluorescence is measured at an excitation of 530 nm and emission of 590 nm.
This assay was performed on a fully automated linear track robotic platform (CRS F3 Robot System, Thermo Electron Corp., Ontario, Canada) utilizing several integrated peripherals for plate handling, liquid dispensing, and readout detection. […] The microplates are then placed at 37° C. for 48 hours to complete treatment of cells with compounds. Next, 5 ul of alamar blue was added using a liquid dispenser (FlexDrop Precision Dispenser, Perkin Elmer, Mass., USA) and incubated for 48 hours at 37° C. The alamar blue prompt fluorescence was measured on Victor V (Victor^3 V, Perkin Elmer, Mass., USA) and output data files were loaded into ORIS (Oncology Research Informatics System, MSKCC, NY, USA), a screening data acquisition and analysis platform. […]

[2] = system: 15 non small cell lung cancer lines representing various EGFR and KRAS mutations; test: Dose response studies against 15 NSCLC lines (alamar blue); assay type: cell-based, human; details: 12 point doubling dilution 10 uM to 5 nM, alamar blue
Protocol: Dose response studies against 34 compounds from the pyridazinone and phenylfuran-carboxamide class were conducted. […] In addition, Tarceva was included in these dose response studies.
The dose response studies were done with the following standard procedure. First, the cells were counted and dispensed at 250 cells/well into 384-well microplates with compound. The cells were incubated for 48 hours at 37 C to complete treatment, and then alamar blue was added for an additional 48 hours. Finally, alamar blue reduction was measured and the data was loaded into ORIS, our data screening acquisition platform.

`Cc1ccccc1-n1ncc(Cl)c(Cl)c1=O` [compound 257017] gave an IC50 [1] of 0.74 µM, a pIC50 ([2]; HPL1D (SV40-immortalized human lung epithelian cells, EGFR WT, KRAS WT), read-out: IC50 HPL1D) of 5.94 and a pIC50 ([2]; Homo sapiens, NCI-H358, H358 (EGFR WT, KRAS G12C), read-out: IC50 H358) of 5.77. It also gave a pIC50 ([2]; Homo sapiens, NCI-H460, H460 (EGFR WT, KRAS Q61H), read-out: IC50 H460) of 5.43, a pIC50 ([2]; Homo sapiens, NCI-H820, H820 (EGFR T790M/DelE746-A750, KRAS WT), read-out: IC50 H820) of 6.33 and a pIC50 ([2]; Homo sapiens, NCI-H1650, H1650 (EGFR DelE746-A750, KRAS WT), read-out: IC50 H1650) of 5.78. The pIC50 ([2]; Homo sapiens, NCI-H1734, H1734 (EGFR WT, KRAS G13C), read-out: IC50 H1734) was 5.49, the pIC50 ([2]; Homo sapiens, NCI-H1975, H1975 (KRAS WT), read-out: IC50 H1975) was 6.12 and the pIC50 ([2]; Homo sapiens, NCI-H2030, H2030 (EGFR WT, KRAS G12C), read-out: IC50 H2030) was 5.86. For the same molecule, the pIC50 ([2]; Homo sapiens, NCI-H2122, H2122 (EGFR WT, KRAS G12C), read-out: IC50 H2122) was 5.67, the pIC50 ([2]; Homo sapiens, NCI-H2444, H2444 (EGFR WT, KRAS G12V), read-out: IC50 H2444) was 5.98 and the pIC50 ([2]; Homo sapiens, NCI-H3255, H3255 (EGFR L858R, KRAS WT), read-out: IC50 H3255) was 5.50. For the same molecule, the pIC50 ([2]; Homo sapiens, A549 (EGFR WT, KRAS G12S), read-out: IC50 A549) was 5.67, the pIC50 ([2]; Homo sapiens, H23 (EGFR WT, KRAS G12C), read-out: IC50 H23) was 6.51 and the pIC50 ([2]; Homo sapiens, H1118 (EGFR L858R, KRAS WT), read-out: IC50 H1118) was 6.08. The pIC50 ([2]; Homo sapiens, PC9 (EGFR DclE746-A750, KRAS WT), read-out: IC50 PC9) was 5.70.
